In patent US7361685B2, “Compounds for use in the treatment of skin conditions” (Oregon Health & Science University, priority 2001, dated 2008):
“And” between values parts separate entries of the source, which are not always exact repeats. Equal entries are not always repeated.

Tests used:
mouse melan-a cell line = assay: Microplate culture and sulforhodamine B (SRB) proliferation assay, melan-a melanocytes; type: cell-based
Protocol: A supplemental growth medium of 10% foetal bovine serum (FBS) was added to the […] microtiter plates. The plates were incubated at 37° C. in a 10% CO2, 90% air humidified atmosphere for 4 days. At the end of the incubation, an SRB assay was performed. Briefly, cells attached to the bottom of the plate were fixed by addition of cold trichloroacetic acid (TCA, 4° C., Aldrich, Dorset, UK) on the top of the growth medium (final TCA 20% w/v). The plate was placed at 4° C. for 1 hour before being gently washed five times with tap water. It was allowed to dry in air, or aided with a hair dryer to speed up the drying process, then 50 μl of […] SRB dissolved in 1% acetic acid in water was added to each well for 30 min. At the end of the staining period, unbound SRB was removed by washing 4 times with 1% acetic acid. The plate was air dried again, and 150 μl of 10 mM aqueous Tris base (Sigma-Aldrich Co. Ltd, Irvine, UK) was added into each well to solubilize the cell-bound dye. […] A control assay was carried out on cells incubated without test compound. There were 2 or 3 series of experiments, each of which consisted of six replicate experiments.
Various compounds of formula (1) were synthesised and tested for melanocyte (mouse melan-a) proliferant activity in-vitro. Cells were incubated with the test compound for 4 days, as described above.
Percentage cell growth was obtained with a given compound calculated as (optical density in the presence of the compound/control optical density)×100.
Melan-a cell proliferant activity for tested compounds was compared with that obtained with piperine. […] All figures are given with Standard Error of the Mean.

melan-a cells = assay: Dendricity of melan-a cells by observation under microscope; type: cell-based, mouse; set-up: key to Dendricity of RV-A08: +++: highly dendiitic; ++: moderately dendritic; +: weakly dendritic; key to Dentricity of RV-A07 / Dendricity of RV-A09 / Dendricity of RV-A10 / Dendricity: +++: highly dendritic; ++: moderately dendritic; +: weakly dendritic; −: no effect
Text: Effect on dendricity of melan-a cells by the test compounds was by observation under microscope. Dendricity is relevant to vitiligo since normal skin melanocytes have dendrites, but in vitiligo the melanocytes seem to lose these before they disappear from the patches.

For `CNC(=O)/C=C/C=C/c1ccc2c(c1)OCO2` [RV-A07, 5-E,E-piperinoylmethylamine], the Percentage cell growth (mouse melan-a cell line; 1 μM, 4 days, ± SEM) was 140 ± 12 %, the Stimulant activity (mouse melan-a cell line; 10 μM) was “Positive” and the Percentage cell growth (mouse melan-a cell line; 10 μM, 4 days, ± SEM) was 170 ± 24 %. The Percentage cell growth (mouse melan-a cell line; 50 μM, 4 days, ± SEM) was 71 ± 5%, the Percentage cell growth (mouse melan-a cell line; 100 μM, 4 days, ± SEM) was 46 ± 2% and the “Dentricity of RV-A07” value (melan-a cells; 10 μM) was “++”.

In the case of `O=C(/C=C/C=C/c1ccc2c(c1)OCO2)N1CCCCC1` [Piperine, reference compound], the Percentage cell growth (mouse melan-a cell line; 1 μM, 4 days, ± SEM) is reported as 147 ± 11**♦ % and 211 ± 16**♦ % and 216 ± 14**♦ % and 221 ± 17**♦ % and 236 ± 30 % and 191 ± 12**♦ % and 161 ± 13 %, the “Percentage cell growth (Repeated experiments) Piperine” value (mouse melan-a cell line; 10 μM piperine run alongside the test compound, 4 days, ± SEM) is reported as 236 ± 17% and 263 + 16** % and 302 ± 17 % and 210 ± 65% and 170 ± 22% and 155 ± 19% and 216 ± 33 % and the Percentage cell growth (mouse melan-a cell line; 10 μM, 4 days, ± SEM) is reported as 192 ± 13**♦ % and 216 ± 33 % and 236 ± 17 % and 263 ± 16 % and 302 ± 17 % and 216 ± 18 % and 192 ± 2**♦ %. For the same molecule, the Percentage cell growth (mouse melan-a cell line; 25 μM, 4 days, ± SEM) was 167 ± 19 %.

`O=C(CCCCc1ccc2c(c1)OCO2)NC1CCCCC1` [RV-C04, 5-(3,4-methylenedioxyphenyl)-pentanoic acid cyclohexylamide] was tested, and the Percentage cell growth (mouse melan-a cell line; 1 μM, 4 days, ± SEM) was 129 ± 6 %, the Percentage cell growth (mouse melan-a cell line; 10 μM, 4 days, ± SEM) was 192 ± 6 % and the Percentage cell growth (mouse melan-a cell line; 50 μM, 4 days, ± SEM) was 192 ± 10 %. The Percentage cell growth (mouse melan-a cell line; 100 μM, 4 days, ± SEM) was 191 ± 12 %, the Dendricity (melan-a cells; 1 μM (tables RV-C04, RV-C05)) was “+” and the Dendricity (melan-a cells; 10 μM (tables RV-C04, RV-C05)) was “+++”. The Dendricity (melan-a cells; 50 μM (tables RV-C04, RV-C05)) was “+++” and the Dendricity (melan-a cells; 100 μM (tables RV-C04, RV-C05)) was “+++”.

In the case of `O=C(/C=C/C=C/c1ccc2c(c1)OCO2)N1CCOCC1` [RV-A02, 5-E,E-piperinoyl morpholine], the Percentage cell growth (mouse melan-a cell line; 1 μM, 4 days, ± SEM) is reported as 125 ± 10%, the Stimulant activity (mouse melan-a cell line; 10 μM) is reported as “Positive” and the “Percentage cell growth (Repeated experiments) Test cpd.” value (mouse melan-a cell line; 10 μM test compound, 4 days, OD vs control x100, ± SEM) is reported as 156 ± 58% and 187 ± 40% and 153 ± 19%. For the same molecule, the Percentage cell growth (mouse melan-a cell line; 10 μM, 4 days, ± SEM) was 167 ± 17 %, the Percentage cell growth (mouse melan-a cell line; 25 μM, 4 days, ± SEM) was 171 ± 8 % and the Percentage cell growth (mouse melan-a cell line; 50 μM, 4 days, ± SEM) was 168 ± 12**□ %.

With `O=C(/C=C/C=C/c1ccc2c(c1)OCO2)NC1CCCCC1` [RV-A10, 5-E,E-piperinoyl cyclohexylamine] the Percentage cell growth (mouse melan-a cell line; 1 μM, 4 days, ± SEM) was 301 ± 20**□ %, the Stimulant activity (mouse melan-a cell line; 10 μM) was “Positive” and the Percentage cell growth (mouse melan-a cell line; 10 μM, 4 days, ± SEM) was 308 ± 29 %. The Percentage cell growth (mouse melan-a cell line; 50 μM, 4 days, ± SEM) was 155 ± 22**□ %, the Percentage cell growth (mouse melan-a cell line; 100 μM, 4 days, ± SEM) was 100 ± 13% and the “Dendricity of RV-A10” value (melan-a cells; 10 μM) was “+++”. For the same molecule, the “Dendricity of RV-A10” value (melan-a cells; 50 μM) was “++”.

In the case of `CCNC(=O)/C=C/C=C/c1ccc2c(c1)OCO2` [RV-A08], the Percentage cell growth (mouse melan-a cell line; 1 μM, 4 days, ± SEM) is reported as 139 ± 27 %, the Stimulant activity (mouse melan-a cell line; 10 μM) is reported as “Positive” and the Percentage cell growth (mouse melan-a cell line; 10 μM, 4 days, ± SEM) is reported as 200 ± 14 %. For the same molecule, the Percentage cell growth (mouse melan-a cell line; 50 μM, 4 days, ± SEM) was 81 ± 12%, the Percentage cell growth (mouse melan-a cell line; 100 μM, 4 days, ± SEM) was 62 ± 13% and the “Dendricity of RV-A08” value (melan-a cells; 10 μM) was “+++”.

With `CC(C)NC(=O)/C=C/C=C/c1ccc2c(c1)OCO2` [RV-A09, 5-E,E-piperinoylisopropylamine] the Percentage cell growth (mouse melan-a cell line; 1 μM, 4 days, ± SEM) was 187 ± 15 %, the Stimulant activity (mouse melan-a cell line; 10 μM) was “Positive” and the Percentage cell growth (mouse melan-a cell line; 10 μM, 4 days, ± SEM) was 224 ± 19 %. For the same molecule, the Percentage cell growth (mouse melan-a cell line; 50 μM, 4 days, ± SEM) was 85 ± 5%, the Percentage cell growth (mouse melan-a cell line; 100 μM, 4 days, ± SEM) was 42 ± 6% and the “Dendricity of RV-A09” value (melan-a cells; 10 μM) was “+++”.

In the case of “7-(3,4-methylenedioxy phenyl)-heptanoic acid piperidineamide [RV-C05]”, the Percentage cell growth (mouse melan-a cell line; 1 μM, 4 days, ± SEM) is reported as 118 ± 1%, the Percentage cell growth (mouse melan-a cell line; 10 μM, 4 days, ± SEM) is reported as 160 ± 5**♦ % and the Percentage cell growth (mouse melan-a cell line; 50 μM, 4 days, ± SEM) is reported as 158 ± 19 %. The Percentage cell growth (mouse melan-a cell line; 100 μM, 4 days, ± SEM) was 113 ± 15%, the Dendricity (melan-a cells; 1 μM (tables RV-C04, RV-C05)) was “+” and the Dendricity (melan-a cells; 10 μM (tables RV-C04, RV-C05)) was “++”. The Dendricity (melan-a cells; 50 μM (tables RV-C04, RV-C05)) was “++” and the Dendricity (melan-a cells; 100 μM (tables RV-C04, RV-C05)) was “+”.
